Assay results taken from patent publication US6676932B2, “Ultraviolet absorbent, photostabilizer, ultraviolet ray-absorbing composition, photostabilized composition and external preparation for skin” (Shiseido Co., Ltd., priority 2001, dated 2004).
Each block holds one compound with its values, some of them ahead of it.

Experiments:
Assay type in all cases: physicochemical
[1] = Dye stabilization effect under daylight exposure (Test Examples 6-91); design: key to Δ E: color difference ΔE in Lab vs. color before daylight exposure; key to Appearance (visual determination): ◯: no change; Δ: almost no change; x: change; details: photostabilizer 0.05 wt %, daylight exposure (80 MJ)
Experimental: For observation of the change of the appearance of each test sample (determination based on visual observation) and the measurement of color difference (ΔE) before and after daylight exposure (80 MJ), the test sample was prepared.
(§1) With a spectrophotometer, the color was measured on the Lab coordinate system, to calculate the color difference on the basis of the color before daylight exposure. More specifically, the color difference (ΔE) was calculated on the basis of the measured values (L1, a1, b1) before daylight exposure.

[2] = Stabilization effect on perfume under daylight exposure (Test Examples 92 to 181); design: key: ◯: no change; Δ: almost no change; x: change; details: daylight exposure (80 MJ)
Experimental: Each test sample was prepared for observation of the change of the odor of the test sample (determined by perfume coordinator) before and after daylight exposure (80 MJ).

[3] = Drug stabilization effect under daylight exposure (Test Examples 182 to 211); design: key to Appearance (visual determination): ◯: no change; Δ: almost no change; x: change; details: photostabilizer 0.05 wt %, daylight exposure (80 MJ); for Remaining ratio (%): liquid chromatography
Experimental: For observation of the change of the appearance of each test sample (determination based on visual observation) and the measurement of the remaining ratio by liquid chromatography before and after daylight exposure (80 MJ), the test sample was prepared.

[4] = Dye stabilization effect in blend with sequestering agents (Test Examples 212 to 275); details: daylight exposure (80 MJ)
Experimental: Each test sample was prepared for observation of the change of the appearance of each test sample (determined visually) and measurement of the color difference (ΔE) before and after daylight exposure (80 MJ).
as §1

[5] = dye Blue 1 (Brilliant Blue FCF) 0.0001 wt %
[6] = dye Green 3 (Fast Green FCF) 0.001 wt %
[7] = dye Red 227 (Acid Fuchsine D) 0.0001 wt %
[8] = dye Yellow 5 (Sunset Yellow FCF) 0.001 wt %
[9] = dyes Red 106 (Acid red) 0.00001 + Yellow 203 (Quinoline Yellow WS) 0.0001 wt %
[10] = dyes Red 213 (Rhodamine B) 0.00001 + Blue 1 (Brilliant Blue FCF) 0.00001 wt %
[11] = dyes Red 227 (Acid Fuchsine D) 0.0001 + Yellow 5 (Sunset Yellow FCF) 0.0001 wt %
[12] = dyes Red 401 (Violanin R) 0.0001 + Blue 1 (Brilliant Blue FCF) 0.00001 wt %
[13] = dyes Yellow 203 (Quinoline Yellow WS) 0.0001 + Yellow 5 (Sunset Yellow FCF) 0.0001 wt %
[14] = base perfume Fruity, photostabilizer 0.1 wt %
[15] = base perfume Muge, photostabilizer 0.05 wt %
[16] = natural perfume Jasmine oil, photostabilizer 0.05 wt %
[17] = natural perfume Nelori oil, photostabilizer 0.1 wt %
[18] = synthetic perfume Limonene oil, photostabilizer 0.05 wt %
[19] = synthetic perfume Rose oxide, photostabilizer 0.2 wt %
[20] = drug Dipotassium glycyrrhizinate 0.05 wt %
[21] = drug L-ascorbic acid 2-glucoside 2.0 wt %
[22] = drug dibutylhydroxytoluene 0.01 wt %
[23] = drug dl-α-tocopherol 2-L-ascorbic acid phosphate diester potassium salt 0.01 wt %
[24] = dye Green 3 (Fast Green FCF) 0.001, sequestering agent 0.1 alone, photostabilizer 0
[25] = dye Yellow 5 (Sunset Yellow FCF) 0.0001, sequestering agent 0.03 alone, photostabilizer 0

Compound: COc1cc(O)c(C(=O)c2ccccc2)cc1S(=O)(=O)[O-].[Na+] [2-Hydroxy-4-methoxybenzophenone-5-sulfonate sodium, reference compound]
Appearance (visual determination) [1, 5]: Δ
Δ E [1, 5]: 1.67
Appearance (visual determination) [1, 6]: Δ
Δ E [1, 6]: 0.74
Appearance (visual determination) [1, 7]: Δ
Δ E [1, 7]: 0.80
Appearance (visual determination) [1, 8]: Δ
Δ E [1, 8]: 0.78

Compound: OCCN(CCO)c1cnnc(O)c1 [5-bis(2-hydroxyethyl)amino-3-hydroxypyridazine]
Appearance (visual determination) [1, 5]: ◯
Δ E [1, 5]: 1.29
Appearance (visual determination) [1, 6]: ◯
Δ E [1, 6]: 0.62
Appearance (visual determination) [1, 7]: ◯
Δ E [1, 7]: 0.55
Appearance (visual determination) [1, 8]: ◯
Δ E [1, 8]: 0.65
Appearance (visual determination) [1, 9]: ◯
Δ E [1, 9]: 0.85
odor determination [2, 15]: ◯
odor determination [2, 16]: ◯
odor determination [2, 19]: ◯

Compound: O=C([O-])CN(CCN(CC(=O)[O-])CC(=O)O)CC(=O)[O-].[Na+].[Na+].[Na+] [ethylenediaminetetraacetate trisodium]
Δ E ([4]; dye Blue 1 (Brilliant Blue FCF) 0.001, sequestering agent 0.05 alone, photostabilizer 0): 8.32
Δ E [4, 24]: 1.75
Δ E ([4]; dye Red 227 (Acid Fuchsine D) 0.0001, sequestering agent 0.02 alone, photostabilizer 0): 1.40
Δ E [4, 25]: 1.72
Δ E ([4]; dyes Red 106 (Acid Red) 0.00001 + Yellow 5 (Sunset Yellow FCF) 0.0001, sequestering agent blend amount 0.02, photostabilizer 0): 4.26
Δ E ([4]; dyes Red 227 (Acid Fuchsine D) 0.0001 + Yellow 5 (Sunset Yellow FCF) 0.0001, sequestering agent blend amount 0.02, photostabilizer 0): 1.55
Δ E ([4]; dyes Red 401 (Violanin R) 0.0001 + Blue 1 (Brilliant Blue FCF) 0.00001, sequestering agent blend amount 0.03, photostabilizer 0): 3.02

Compound: CCCCC(CC)COC(=O)/C=C/c1ccc(OC)cc1 (centres unmarked) [p-Methoxycinnamate octyl, reference compound]
Appearance (visual determination) [1, 5]: x
Δ E [1, 5]: 5.23
Appearance (visual determination) [1, 6]: x
Δ E [1, 6]: 1.64
Appearance (visual determination) [1, 7]: x
Δ E [1, 7]: 1.22
Appearance (visual determination) [1, 8]: x
Δ E [1, 8]: 1.56

Compound: sodium polyphosphate
Δ E [4, 24]: 1.75
Δ E [4, 25]: 1.70

Further lines, with some results ahead:

Remaining ratio (%) [3, 20]: 97.8%
Remaining ratio (%) [3, 21]: 97.8%
Remaining ratio (%) [3, 22]: 95.2%
Remaining ratio (%) [3, 23]: 95.4%
Remaining ratio (%) ([3]; drug salicylic acid 0.1 wt %): 98.2%
Compound: COc1ccc(C(=O)c2ccccc2)c(O)c1 [2-Hydroxy-4-methoxybenzophenone, reference compound]
Appearance (visual determination) [1, 5]: Δ
Δ E [1, 5]: 1.76
Appearance (visual determination) [1, 6]: Δ
Δ E [1, 6]: 0.75
Appearance (visual determination) [1, 7]: Δ
Δ E [1, 7]: 0.71
Appearance (visual determination) [1, 8]: Δ
Δ E [1, 8]: 0.82
Appearance (visual determination) [1, 9]: Δ
Δ E [1, 9]: 1.11
Appearance (visual determination) [1, 10]: Δ
Δ E [1, 10]: 1.26
Appearance (visual determination) [1, 11]: Δ
Δ E [1, 11]: 0.88
Appearance (visual determination) [1, 12]: Δ
Δ E [1, 12]: 0.82
Appearance (visual determination) [1, 13]: ◯
Δ E [1, 13]: 0.52
odor determination [2, 14]: Δ
odor determination [2, 15]: Δ
odor determination ([2]; base perfume Rose, photostabilizer 0.05 wt %): Δ
odor determination ([2]; base perfume Spicy, photostabilizer 0.2 wt %): Δ
odor determination ([2]; base perfume Woody, photostabilizer 0.1 wt %): Δ
odor determination [2, 16]: Δ
odor determination ([2]; natural perfume Lavender oil, photostabilizer 0.1 wt %): Δ
odor determination [2, 17]: Δ
odor determination ([2]; natural perfume Rose oil, photostabilizer 0.05 wt %): Δ
odor determination ([2]; natural perfume Ylang ylang oil, photostabilizer 0.2 wt %): Δ
odor determination ([2]; synthetic perfume Citral, photostabilizer 0.1 wt %): Δ
odor determination [2, 18]: Δ
odor determination ([2]; synthetic perfume Linalool, photostabilizer 0.05 wt %): Δ
odor determination ([2]; synthetic perfume Linalyl acetate, photostabilizer 0.1 wt %): Δ
odor determination [2, 19]: Δ
Appearance (visual determination) [3, 20]: Δ
Appearance (visual determination) [3, 21]: Δ
Appearance (visual determination) [3, 22]: Δ
Appearance (visual determination) [3, 23]: Δ
Appearance (visual determination) ([3]; drug salicylic acid 0.1 wt %): Δ

Δ E ([4]; dyes Yellow 203 (Quinoline Yellow WS) 0.0001 + Yellow 5 (Sunset Yellow FCF) 0.0001, no sequestering agent, photostabilizer blend amount 0.02): 0.88
Δ E ([4]; dyes Yellow 203 (Quinoline Yellow WS) 0.0001 + Yellow 5 (Sunset Yellow FCF) 0.0001, with sodium metaphosphate 0.01, photostabilizer blend amount 0.02): 0.55
Compound: OCCNc1ccc(NCCO)nn1 [3,6-Bis(2-hydroxyethylamino) pyridazine]

Remaining ratio (%) [3, 20]: 98.8%
Remaining ratio (%) [3, 21]: 98.8%
Compound: OCCNc1ccc(NCCO)nn1 [3,6-Bis(2-hydroxyethylamino)pyridazine, 3,6-bis(2-hydroxyethylamino)pyridazine]
Appearance (visual determination) [1, 5]: ◯
Δ E [1, 5]: 1.38
Appearance (visual determination) [1, 6]: ◯
Δ E [1, 6]: 0.63
Appearance (visual determination) [1, 7]: ◯
Δ E [1, 7]: 0.64
Appearance (visual determination) [1, 8]: ◯
Δ E [1, 8]: 0.66
Appearance (visual determination) [1, 13]: ◯
Δ E [1, 13]: 0.47
odor determination [2, 14]: ◯
odor determination [2, 17]: ◯
odor determination [2, 18]: ◯
Appearance (visual determination) [3, 20]: ◯
Appearance (visual determination) [3, 21]: ◯

Δ E ([4]; dyes Red 227 (Acid Fuchsine D) 0.0001 + Yellow 5 (Sunset Yellow FCF) 0.0001, no sequestering agent, photostabilizer blend amount 0.01): 1.12
Δ E ([4]; dyes Red 227 (Acid Fuchsine D) 0.0001 + Yellow 5 (Sunset Yellow FCF) 0.0001, with ethylenediaminetetraacetate trisodium 0.02, photostabilizer blend amount 0.01): 0.68
Compound: Oc1nncc(N2CCCCC2)c1N1CCCCC1 [4,5-Dipipendino-3-hydroxypyridazine]

Δ E ([4]; dyes Red 401 (Violanin R) 0.0001 + Green 3 (Fast Green FCF) 0.00001, no sequestering agent, photostabilizer blend amount 0.02): 1.52
Δ E ([4]; dyes Red 401 (Violanin R) 0.0001 + Green 3 (Fast Green FCF) 0.00001, with sodium metaphosphate 0.03, photostabilizer blend amount 0.02): 0.77
Compound: Oc1nncc(N2CCCCC2)c1N1CCCCC1 [4,5-Dipiperidino-33-hydroxy pyridazine]
